Measured values as given in US12084430B2, “Tricyclic urea compounds as JAK2 V617F inhibitors” (Incyte Corporation, priority 2022, dated 2024).
Like-named read-outs stand apart in the source and are kept apart here.

Experiments:
FLT3 = biological target: T1, FLT3 (Homo sapiens, UniProt P36888); experiment: FLT3 enzymatic assay; format: biochemical; details: 1 mM ATP
T1 sequence (P36888 27-993): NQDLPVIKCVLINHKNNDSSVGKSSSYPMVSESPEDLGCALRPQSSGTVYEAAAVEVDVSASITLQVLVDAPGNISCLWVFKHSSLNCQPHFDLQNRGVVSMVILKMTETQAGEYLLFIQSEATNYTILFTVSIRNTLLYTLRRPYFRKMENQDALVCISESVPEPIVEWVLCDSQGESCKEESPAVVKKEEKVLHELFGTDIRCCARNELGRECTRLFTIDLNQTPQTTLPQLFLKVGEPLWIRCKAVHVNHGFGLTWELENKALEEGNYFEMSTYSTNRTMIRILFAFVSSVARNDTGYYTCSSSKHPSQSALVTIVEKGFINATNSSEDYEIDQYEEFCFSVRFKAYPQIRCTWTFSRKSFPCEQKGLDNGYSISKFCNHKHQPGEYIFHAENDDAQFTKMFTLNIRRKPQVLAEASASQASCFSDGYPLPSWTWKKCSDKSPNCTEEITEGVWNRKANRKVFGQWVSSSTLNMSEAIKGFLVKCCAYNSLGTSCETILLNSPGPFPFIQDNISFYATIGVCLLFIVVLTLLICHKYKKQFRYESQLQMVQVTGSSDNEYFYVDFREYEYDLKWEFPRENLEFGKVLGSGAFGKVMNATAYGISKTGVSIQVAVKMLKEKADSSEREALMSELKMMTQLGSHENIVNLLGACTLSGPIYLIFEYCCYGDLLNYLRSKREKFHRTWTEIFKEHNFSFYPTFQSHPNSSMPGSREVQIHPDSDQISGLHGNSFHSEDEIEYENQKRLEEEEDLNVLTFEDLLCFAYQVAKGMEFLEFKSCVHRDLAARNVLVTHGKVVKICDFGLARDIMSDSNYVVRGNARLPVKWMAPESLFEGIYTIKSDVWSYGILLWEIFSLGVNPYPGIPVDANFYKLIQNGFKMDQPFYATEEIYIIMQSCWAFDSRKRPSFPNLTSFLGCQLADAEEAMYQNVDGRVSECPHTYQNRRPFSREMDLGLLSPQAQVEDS
How it was run: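 Kinase reaction at room temperature in HEPES 50 mM pH 7.0 with 10 mM MgCl2, 1 mM DTT: 0.011 nM FLT3, 1 mM ATP, 500 nM biotinylated TK substrate, 0.5% DMSO. After 60 min, HTRF read as 665/620 nm ratio; IC50 from fit of percent control activity versus log concentration.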

[1] = biological target: T2, catalytic domain (JH1, amino acids 826-1132) of human JAK2 (Homo sapiens, UniProt O60674); experiment: JAK2 LanthaScreen JH1 binding assay; details: read-out: JH1 Bind IC50
T2 construct: catalytic domain (JH1, amino acids 826-1132) of human JAK2; FLAG (N); biotin (biotinylated); purchased Carna Biosciences 08-445-20N; host or cells: baculovirus expression system
Experimental: Example A. JAK2 LanthaScreen […] Binding Assay
JAK2 JH1 binding assay utilizes catalytic domain (JH1, amino acids 826-1132) of human JAK2 expressed as N-terminal FLAG-tagged, biotinylated protein in a baculovirus expression system (Carna Biosciences, Product #08-445-20N). The assay was conducted in black 384-well polystyrene plates in a final reaction volume of 20 μL. JAK2 JH1 (1.5 nM) was incubated with compounds (100 nL serially diluted in DMSO) in the presence of 50 nM fluorescent JAK2-JH1 tracer and 0.5 nM Streptavidin-Tb cryptate (Cisbio Part #610SATLB) in assay buffer (50 mM Tris, pH=7.5, 10 mM MgCl2, 0.01% Brij-35, 0.1% BSA, 1 mM EGTA, 5% Glycerol and 5 mM DTT). Non-specific binding was accessed in the presence of 2 mM ATP. After incubation for 2 hours at 25° C., LanthaScreen signals were read on a PHERAstar FS plate reader (BMG LABTECH). Data was analyzed with IDBS XLfit and GraphPad Prism 5.0 software using a four parameter dose response curve to determine IC50 for each compound.

[2] = biological target: T3, pseudo-kinase domain (JH2) of human V617F mutant JAK2 (Homo sapiens, UniProt O60674, F794H/V617F/W659A/W777A); experiment: JAK2 LanthaScreen JH2-V617F binding assay; details: read-out: JH2 V617F Bind IC50
T3 construct: pseudo-kinase domain (JH2, amino-acids 536-812 with 3 surface mutations W659A, W777A, F794H); His (C); purchased BPS Bioscience 79498; host or cells: baculovirus expression system
Experimental: Example B. JAK2 LanthaScreen JH2-V617F Binding Assay
JAK2 JH2-V617F binding assay utilizes pseudo-kinase domain (JH2, amino-acids 536-812 with 3 surface mutations W659A, W777A, F794H) of human V617F mutant JAK2 expressed as C-terminal His-Avi-tagged, biotinylated protein in a baculovirus expression system (BPS Bioscience, Catalog #79498). The assay was conducted in black 384-well polystyrene plates in a final reaction volume of 20 μL. JAK2 JH2-V617F (0.26 nM) was incubated with compounds (100 nL serially diluted in DMSO) in the presence of 50 nM Fluorescent JAK2-JH2 Tracer (MedChem Express Catalog #HY-102055) and 0.25 nM Streptavidin-Tb cryptate (Cisbio Part #610SATLB) in assay buffer (50 mM Tris, pH=7.5, 10 mM MgCl2, 0.01% Brij-35, 0.1% BSA, 1 mM EGTA, 5% Glycerol and 5 mM DTT). Non-specific binding was accessed in the presence of 2 mM ATP. After incubation for 1 hour at 25° C., LanthaScreen signals were read on a PHERAstar FS plate reader (BMG LABTECH). Data was analyzed with IDBS XLfit and GraphPad Prism 5.0 software using a four parameter dose response curve to determine IC50 for each compound.

T2 sequence (O60674 826-1132): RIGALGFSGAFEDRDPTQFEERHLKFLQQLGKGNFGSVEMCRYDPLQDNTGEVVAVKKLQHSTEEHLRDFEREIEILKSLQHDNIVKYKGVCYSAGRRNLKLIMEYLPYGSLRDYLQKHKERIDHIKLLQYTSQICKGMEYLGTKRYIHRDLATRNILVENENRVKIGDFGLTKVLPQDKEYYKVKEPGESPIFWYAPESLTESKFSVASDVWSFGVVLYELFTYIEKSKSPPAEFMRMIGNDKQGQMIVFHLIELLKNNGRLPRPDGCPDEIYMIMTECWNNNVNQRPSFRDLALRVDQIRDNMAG
T3 sequence (O60674 536-812 V617F/W659A/W777A/F794H): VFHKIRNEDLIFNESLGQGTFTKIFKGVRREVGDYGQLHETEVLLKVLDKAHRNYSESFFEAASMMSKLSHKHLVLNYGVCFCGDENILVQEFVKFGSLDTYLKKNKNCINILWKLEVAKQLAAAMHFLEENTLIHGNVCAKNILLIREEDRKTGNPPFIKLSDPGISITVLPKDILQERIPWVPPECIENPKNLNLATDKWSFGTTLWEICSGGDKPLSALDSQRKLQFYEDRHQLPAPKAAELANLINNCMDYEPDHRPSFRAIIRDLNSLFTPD

| SMILES | IC50 (FLT3) | IC50 ([1]; Table A) | IC50 ([1]; Table C) | IC50 ([2]; Table A) | IC50 ([2]; Table C) |
| --- | --- | --- | --- | --- | --- |
| COc1nn(C)cc1-c1[nH]c2ncc3c(c2c1-c1ccc2c(cnn2C)c1)n([C@H]1CC[C@@H](CC#N)CC1)c(=O)n3C [E, reference compound] | 250 to 1250 nM | – | – | – | – |
| COC(=O)N[C@@H]1CC[C@@H](n2c(=O)n(C)c3cnc4[nH]c(-c5cn(C)nc5OC)c(-c5ccc(F)cc5)c4c32)C1 [Example 1, Methyl ((1R,3R)-3-(8-(4-fluorophenyl)-7-(3-methoxy-1-methyl-1H-pyrazol-4-yl)-3-methyl-2-oxo-3,6-dihydroimidazo[4,5-d]pyrrolo[2,3-b]pyridin-1(2H)-yl)cyclopentyl)carbamate] | > 2500 nM | > 1000 nM | > 1000 nM | ≤ 10 nM | ≤ 10 nM |
| COC(=O)N[C@@H]1CC[C@@H](n2c(=O)n(C)c3cnc4[nH]c(-c5cn(C)nc5OC)c(-c5ccccc5)c4c32)C1 [Example 2, Methyl ((1R,3R)-3-(7-(3-methoxy-1-methyl-1H-pyrazol-4-yl)-3-methyl-2-oxo-8-phenyl-3,6-dihydroimidazo[4,5-d]pyrrolo[2,3-b]pyridin-1(2H)-yl)cyclopentyl)carbamate] | > 2500 nM | > 1000 nM | > 1000 nM | ≤ 10 nM | ≤ 10 nM |
| COC(=O)N[C@@H]1CC[C@@H](n2c(=O)n(C)c3cnc4[nH]c(-c5cn(C)nc5OC)c(-c5cccc(F)c5)c4c32)C1 [Example 3, Methyl ((1R,3R)-3-(8-(3-fluorophenyl)-7-(3-methoxy-1-methyl-1H-pyrazol-4-yl)-3-methyl-2-oxo-3,6-dihydroimidazo[4,5-d]pyrrolo[2,3-b]pyridin-1(2H)-yl)cyclopentyl)carbamate] | > 2500 nM | > 1000 nM | > 1000 nM | ≤ 10 nM | ≤ 10 nM |
| COC(=O)N[C@@H]1CC[C@@H](n2c(=O)n(C)c3cnc4[nH]c(-c5cn(C)nc5OC)c(-c5ccc(OC)c(F)c5)c4c32)C1 [Example 4, Methyl ((1R,3R)-3-(8-(3-fluoro-4-methoxyphenyl)-7-(3-methoxy-1-methyl-1H-pyrazol-4-yl)-3-methyl-2-oxo-3,6-dihydroimidazo[4,5-d]pyrrolo[2,3-b]pyridin-1(2H)-yl)cyclopentyl)carbamate] | > 2500 nM | > 1000 nM | > 1000 nM | ≤ 10 nM | ≤ 10 nM |
| [2H]C([2H])([2H])n1ncc2cc(-c3c(-c4cn(C)nc4OC)[nH]c4ncc5c(c34)n([C@@H]3CC[C@@H](NC(=O)OC)C3)c(=O)n5C)ccc21 [Example 5, Methyl ((1R,3R)-3-(7-(3-methoxy-1-methyl-1H-pyrazol-4-yl)-3-methyl-8-(1-(methyl-d3)-1H-indazol-5-yl)-2-oxo-3,6-dihydroimidazo[4,5-d]pyrrolo[2,3-b]pyridin-1(2H)-yl)cyclopentyl)carbamate] | 1250 to 2500 nM | > 1000 nM | > 1000 nM | ≤ 10 nM | ≤ 10 nM |
| [2H]C([2H])([2H])n1cc(-c2[nH]c3ncc4c(c3c2-c2ccc3c(cnn3C([2H])([2H])[2H])c2)n([C@@H]2CC[C@@H](NC(=O)OC)C2)c(=O)n4C([2H])([2H])[2H])c(F)n1 [Example 6, Methyl ((1R,3R)-3-(7-(3-fluoro-1-(methyl-d3)-1H-pyrazol-4-yl)-3-(methyl-d3)-8-(1-(methyl-d3)-1H-indazol-5-yl)-2-oxo-3,6-dihydroimidazo[4,5-d]pyrrolo[2,3-b]pyridin-1(2H)-yl)cyclopentyl)carbamate] | 1250 to 2500 nM | > 1000 nM | > 1000 nM | ≤ 10 nM | ≤ 10 nM |
| [2H]C([2H])([2H])n1cc(-c2[nH]c3ncc4c(c3c2-c2ccc(F)cc2)n([C@@H]2CC[C@@H](NC(=O)OC)C2)c(=O)n4C([2H])([2H])[2H])c(F)n1 [Example 7, Methyl ((1R,3R)-3-(7-(3-fluoro-1-(methyl-d3)-1H-pyrazol-4-yl)-8-(4-fluorophenyl)-3-(methyl-d3)-2-oxo-3,6-dihydroimidazo[4,5-d]pyrrolo[2,3-b]pyridin-1(2H)-yl)cyclopentyl)carbamate] | > 2500 nM | > 1000 nM | > 1000 nM | ≤ 10 nM | ≤ 10 nM |
| [2H]C([2H])([2H])n1cc(-c2[nH]c3ncc4c(c3c2-c2ccc3c(c2)COC3(C)C)n([C@@H]2CC[C@@H](NC(=O)OC)C2)c(=O)n4C([2H])([2H])[2H])c(F)n1 [Example 8, Methyl ((1R,3R)-3-(8-(1,1-dimethyl-1,3-dihydroisobenzofuran-5-yl)-7-(3-fluoro-1-(methyl-d3)-1H-pyrazol-4-yl)-3-(methyl-d3)-2-oxo-3,6-dihydroimidazo[4,5-d]pyrrolo[2,3-b]pyridin-1(2H)-yl)cyclopentyl)carbamate] | > 2500 nM | > 1000 nM | > 1000 nM | ≤ 10 nM | ≤ 10 nM |
| [2H]C([2H])([2H])Oc1ccc(-c2c(-c3cn(C([2H])([2H])[2H])nc3F)[nH]c3ncc4c(c23)n([C@@H]2CC[C@@H](NC(=O)OC)C2)c(=O)n4C([2H])([2H])[2H])cc1 [Example 9, Methyl ((1R,3R)-3-(7-(3-fluoro-1-(methyl-d3)-1H-pyrazol-4-yl)-8-(4-(methoxy-d3)phenyl)-3-(methyl-d3)-2-oxo-3,6-dihydroimidazo[4,5-d]pyrrolo[2,3-b]pyridin-1(2H)-yl)cyclopentyl)carbamate] | 250 to 1250 nM | > 1000 nM | > 1000 nM | ≤ 10 nM | ≤ 10 nM |
| [2H]C([2H])([2H])n1cc(-c2[nH]c3ncc4c(c3c2-c2ccc(C(C)(C)O)cc2)n([C@@H]2CC[C@@H](NC(=O)OC)C2)c(=O)n4C([2H])([2H])[2H])c(F)n1 [Example 10, Methyl ((1R,3R)-3-(7-(3-fluoro-1-(methyl-d3)-1H-pyrazol-4-yl)-8-(4-(2-hydroxypropan-2-yl)phenyl)-3-(methyl-d3)-2-oxo-3,6-dihydroimidazo[4,5-d]pyrrolo[2,3-b]pyridin-1(2H)-yl)cyclopentyl)carbamate] | 250 to 1250 nM | > 1000 nM | > 1000 nM | ≤ 10 nM | ≤ 10 nM |
